Reference: PubChem BioAssay AID248 (DTP/NCI, 2004)
Values joined by “and” are separate entries in the source; they are usually repeats but may differ in a detail not shown here. Identical values can stand only once. Inconclusive results and toxic doses are left out.

System: L1210 leukemia ip in BDF1 mice, survival T/C
Experiment: NCI In Vivo Anticancer Drug Screen. Data for tumor model L1210 Leukemia (intraperitoneal) in B6D2F1 (BDF1) mice
Conditions: endpoint: mean survival time, higher = longer survival
Method in brief: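 Tumor cells were implanted, animals were treated, and survival was followed. The result divides the treated measurement by the vehicle-control measurement.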

[1] = dose: 100.0 mg/kg/injection, schedule: Q01DX001 (ip), vehicle: carboxymethylcellulose (CMC)
[2] = dose: 200.0 mg/kg/injection, schedule: Q01DX001 (ip), vehicle: carboxymethylcellulose (CMC)
[3] = dose: 400.0 mg/kg/injection, schedule: Q01DX001 (ip), vehicle: carboxymethylcellulose (CMC)
[4] = dose: 50.0 mg/kg/injection, schedule: Q01DX009 (ip), vehicle: Klucel (hydroxypropylcellulose) (HPC)
[5] = dose: 100.0 mg/kg/injection, schedule: Q01DX009 (ip), vehicle: Klucel (hydroxypropylcellulose) (HPC)
[6] = dose: 200.0 mg/kg/injection, schedule: Q01DX009 (ip), vehicle: Klucel (hydroxypropylcellulose) (HPC)
[7] = dose: 100.0 mg/kg/injection, schedule: Q01DX001 (ip), vehicle: saline
[8] = dose: 100.0 mg/kg/injection, schedule: Q04DX002 (ip), vehicle: Klucel (hydroxypropylcellulose) (HPC)
[9] = dose: 200.0 mg/kg/injection, schedule: Q01DX001 (ip), vehicle: saline
[10] = dose: 200.0 mg/kg/injection, schedule: Q04DX002 (ip), vehicle: Klucel (hydroxypropylcellulose) (HPC)
[11] = dose: 400.0 mg/kg/injection, schedule: Q01DX001 (ip), vehicle: saline
[12] = dose: 400.0 mg/kg/injection, schedule: Q04DX002 (ip), vehicle: Klucel (hydroxypropylcellulose) (HPC)
[13] = dose: 50.0 mg/kg/injection, schedule: Q01DX001 (ip), vehicle: carboxymethylcellulose (CMC)
[14] = dose: 400.0 mg/kg/injection, schedule: Q01DX009 (ip), vehicle: Klucel (hydroxypropylcellulose) (HPC)
[15] = dose: 100.0 mg/kg/injection, schedule: Q04DX002 (ip), vehicle: saline
[16] = dose: 100.0 mg/kg/injection, schedule: Q04DX003 (ip), vehicle: Klucel (hydroxypropylcellulose) (HPC)
[17] = dose: 200.0 mg/kg/injection, schedule: Q04DX003 (ip), vehicle: Klucel (hydroxypropylcellulose) (HPC)
[18] = dose: 400.0 mg/kg/injection, schedule: Q04DX003 (ip), vehicle: Klucel (hydroxypropylcellulose) (HPC)
[19] = dose: 50.0 mg/kg/injection, schedule: Q01DX001 (ip), vehicle: saline
[20] = dose: 50.0 mg/kg/injection, schedule: Q04DX003 (ip), vehicle: Klucel (hydroxypropylcellulose) (HPC)

SMILES: O=[N+]([O-])c1ccccc1C/C=C/CCl
- T/C [1]: 100 % of control
- T/C [2]: 96 % of control
- T/C [3]: 94 % of control

SMILES: Cc1ccc(NC(=O)N(CCCCl)N=O)cc1
- T/C (dose: 25.0 mg/kg/injection, schedule: Q01DX009 (ip), vehicle: Klucel (hydroxypropylcellulose) (HPC)): 103 % of control
- T/C [4]: 93 % of control
- T/C (dose: 59.0 mg/kg/injection, schedule: Q01DX009 (ip), vehicle: carboxymethylcellulose (CMC)): 120 % of control
- T/C (dose: 88.0 mg/kg/injection, schedule: Q01DX009 (ip), vehicle: carboxymethylcellulose (CMC)): 117 % of control
- T/C [1]: 115 % of control
- T/C [5]: 97 % of control
- T/C (dose: 118.0 mg/kg/injection, schedule: Q01DX001 (sc), vehicle: olive oil, sesame oil, peanut oil): 107 % of control
- T/C (dose: 133.0 mg/kg/injection, schedule: Q01DX009 (ip), vehicle: carboxymethylcellulose (CMC)): 88 % of control
- T/C (dose: 177.0 mg/kg/injection, schedule: Q01DX001 (ip), vehicle: carboxymethylcellulose (CMC)): 100 % of control and 113 % of control
- T/C (dose: 177.0 mg/kg/injection, schedule: Q01DX001 (sc), vehicle: olive oil, sesame oil, peanut oil): 107 % of control
- T/C [2]: 121 % of control
- T/C [6]: 97 % of control
- T/C (dose: 266.0 mg/kg/injection, schedule: Q01DX001 (ip), vehicle: carboxymethylcellulose (CMC)): 105 % of control
- T/C (dose: 266.0 mg/kg/injection, schedule: Q01DX001 (sc), vehicle: olive oil, sesame oil, peanut oil): 102 % of control
- T/C [3]: 113 % of control and 119 % of control
- T/C (dose: 400.0 mg/kg/injection, schedule: Q01DX001 (sc), vehicle: olive oil, sesame oil, peanut oil): 107 % of control

SMILES: Nc1ccc(S(=O)(=O)Nc2ncccn2)cc1
- T/C [7]: 96 % of control
- T/C [8]: 103 % of control
- T/C [9]: 97 % of control
- T/C [10]: 92 % of control
- T/C [11]: 103 % of control
- T/C [12]: 103 % of control

SMILES: OC1(C2(O)CCC2)CCC1
- T/C [13]: 98 % of control
- T/C [1]: 95 % of control
- T/C [2]: 95 % of control
- T/C [3]: 101 % of control

SMILES: Cc1cccc(OCc2ccccc2)n1
- T/C [13]: 103 % of control
- T/C [1]: 105 % of control
- T/C [2]: 100 % of control
- T/C [3]: 100 % of control

SMILES: C=CCNC(=S)Nc1cccc(O)c1
- T/C [5]: 95 % of control
- T/C [6]: 104 % of control
- T/C [14]: 107 % of control

SMILES: CCCCCCCCCCN1CCC(N2CCCCC2)CC1
- T/C (dose: 25.0 mg/kg/injection, schedule: Q04DX002 (ip), vehicle: saline): 102 % of control
- T/C (dose: 50.0 mg/kg/injection, schedule: Q04DX002 (ip), vehicle: saline): 102 % of control
- T/C [15]: 98 % of control and 91 % of control

SMILES: CCOC(=O)CNc1cc(C)ccc1C
- T/C [8]: 95 % of control
- T/C [10]: 98 % of control
- T/C [12]: 95 % of control

SMILES: Cc1cccc(OC(=O)NC2CCCCC2)c1
- T/C [5]: 118 % of control
- T/C [16]: 102 % of control
- T/C [6]: 114 % of control
- T/C [17]: 95 % of control
- T/C [14]: 106 % of control
- T/C [18]: 96 % of control

SMILES: CC(=O)Nc1cccc2c1CCCC2
- T/C (dose: 100.0 mg/kg/injection, schedule: Q01DX009 (ip), vehicle: gum acacia): 98 % of control
- T/C (dose: 100.0 mg/kg/injection, schedule: Q04DX003 (ip), vehicle: gum acacia): 95 % of control
- T/C (dose: 200.0 mg/kg/injection, schedule: Q01DX009 (ip), vehicle: gum acacia): 97 % of control
- T/C (dose: 200.0 mg/kg/injection, schedule: Q04DX003 (ip), vehicle: gum acacia): 96 % of control
- T/C (dose: 400.0 mg/kg/injection, schedule: Q01DX009 (ip), vehicle: gum acacia): 103 % of control
- T/C (dose: 400.0 mg/kg/injection, schedule: Q04DX003 (ip), vehicle: gum acacia): 95 % of control

SMILES: CN=C(NCCCOC)c1ccc(NC(=O)Nc2ccc(NC(=O)Nc3ccc(C(=NC)NCCCOC)cc3)cc2)cc1
- T/C (dose: 1.87 mg/kg/injection, schedule: Q01DX Z (ip), vehicle: carboxymethylcellulose (CMC)): 107 % of control
- T/C (dose: 3.75 mg/kg/injection, schedule: Q01DX Z (ip), vehicle: carboxymethylcellulose (CMC)): 96 % of control
- T/C (dose: 7.5 mg/kg/injection, schedule: Q01DX Z (ip), vehicle: carboxymethylcellulose (CMC)): 104 % of control
- T/C (dose: 15.0 mg/kg/injection, schedule: Q01DX Z (ip), vehicle: carboxymethylcellulose (CMC)): 102 % of control

SMILES: O=c1[nH]cc(/C=N\Nc2ccccc2)c(=O)[nH]1
- T/C [19]: 97 % of control
- T/C [7]: 101 % of control
- T/C [9]: 101 % of control
- T/C [11]: 101 % of control

SMILES: Cc1cc(Br)c(O)c(Br)c1
- T/C (dose: 75.0 mg/kg/injection, schedule: Q01DX001 (ip), vehicle: Klucel (hydroxypropylcellulose) (HPC)): 99 % of control
- T/C (dose: 150.0 mg/kg/injection, schedule: Q01DX001 (ip), vehicle: Klucel (hydroxypropylcellulose) (HPC)): 100 % of control
- T/C (dose: 300.0 mg/kg/injection, schedule: Q01DX001 (ip), vehicle: Klucel (hydroxypropylcellulose) (HPC)): 95 % of control

SMILES: O=C(O)c1ccc(N=Nc2nc3[nH]c(=O)[nH]c(=O)c3[nH]2)cc1
- T/C [4]: 97 % of control
- T/C [5]: 97 % of control
- T/C [6]: 87 % of control

SMILES: N#CC(c1ccccc1)C(c1ccccc1)c1ccccc1 (stereo not given)
- T/C [19]: 102 % of control
- T/C [7]: 102 % of control
- T/C [9]: 98 % of control
- T/C [11]: 98 % of control

SMILES: COc1cc2c(cc1OC)C1CNC(=O)C1C(c1ccccc1)C2 (stereo not given)
- T/C [20]: 103 % of control
- T/C [5]: 100 % of control
- T/C [16]: 98 % of control
- T/C [6]: 102 % of control
- T/C [17]: 95 % of control
- T/C [14]: 94 % of control
- T/C [18]: 98 % of control

SMILES: CCOc1ccc(-n2cnc3c(=O)[nH]c(N)nc32)cc1
- T/C [5]: 93 % of control
- T/C [6]: 91 % of control
- T/C [14]: 91 % of control

SMILES: C1C[N+]2(CCO1)CC[N+]1(CCOCC1)CC2
- T/C [15]: 104 % of control
- T/C (dose: 200.0 mg/kg/injection, schedule: Q04DX002 (ip), vehicle: saline): 96 % of control
- T/C (dose: 400.0 mg/kg/injection, schedule: Q04DX002 (ip), vehicle: saline): 100 % of control

SMILES: CCCCCCCCCCCCOC(=O)/C=C\C(=O)NC(N)=O
- T/C (dose: 25.0 mg/kg/injection, schedule: Q04DX003 (ip), vehicle: Klucel (hydroxypropylcellulose) (HPC)): 102 % of control
- T/C [20]: 97 % of control
- T/C [16]: 105 % of control and 91 % of control
- T/C (dose: 150.0 mg/kg/injection, schedule: Q04DX003 (ip), vehicle: Klucel (hydroxypropylcellulose) (HPC)): 96 % of control

SMILES: O=C1c2ccccc2C(C(O)(C(F)(F)F)C(F)(F)F)c2ccccc21
- T/C (dose: 100.0 mg/kg/injection, schedule: Q04DX003 (ip), vehicle: saline with Tween-80): 92 % of control
- T/C (dose: 200.0 mg/kg/injection, schedule: Q04DX003 (ip), vehicle: saline with Tween-80): 97 % of control

SMILES: O=C(CCC(=O)[O][Sn]([c]1ccccc1)([c]1ccccc1)[c]1ccccc1)[O][Sn]([c]1ccccc1)([c]1ccccc1)[c]1ccccc1
- T/C (dose: 1.56 mg/kg/injection, schedule: Q01DX009 (ip), vehicle: saline with Tween-80): 93 % of control
- T/C (dose: 3.12 mg/kg/injection, schedule: Q01DX009 (ip), vehicle: saline with Tween-80): 90 % of control
- T/C (dose: 6.25 mg/kg/injection, schedule: Q04DX003 (ip), vehicle: saline with Tween-80): 95 % of control
- T/C (dose: 12.5 mg/kg/injection, schedule: Q01DX001 (ip), vehicle: saline): 104 % of control
- T/C (dose: 25.0 mg/kg/injection, schedule: Q01DX001 (ip), vehicle: saline): 91 % of control

SMILES: CCN1/C(=C/C(C)=C/c2[se]c3ccc(C)cc3[n+]2CC)[Se]c2ccc(C)cc21
- T/C (dose: 2.0 mg/kg/injection, schedule: Q01DX001 (ip), vehicle: other): 109 % of control
- T/C (dose: 4.0 mg/kg/injection, schedule: Q01DX001 (ip), vehicle: other): 114 % of control

SMILES: COc1ccc(C(=O)CCCC(=O)O)cc1
- T/C [13]: 105 % of control
- T/C [1]: 100 % of control
- T/C [2]: 111 % of control
- T/C [3]: 105 % of control

SMILES: CN(C)C(=O)c1cc(NC(=O)Nc2ccc(C3=NCCN3)cc2)cc(NC(=O)Nc2ccc(C3=NCCN3)cc2)c1
- T/C (dose: 15.0 mg/kg/injection, schedule: Q01DX Z (ip), vehicle: saline): 158 % of control
- T/C (dose: 30.0 mg/kg/injection, schedule: Q01DX Z (ip), vehicle: saline): 222 % of control
- T/C (dose: 60.0 mg/kg/injection, schedule: Q01DX Z (ip), vehicle: saline): 250 % of control
